# Counter-ions that a name gives are not always drawn.
# Tested on: Acinetobacter baumannii ATCC 17978
# Test: Antimicrobial susceptibility testing: 90% growth inhibitory concentration (IC90) determination
# Format: cell-based
# Conditions: 90% growth inhibitory concentration; Acinetobacter baumannii ATCC17978; Iso-Sensitest broth, OD 600 nm over 16h; read-out: ATCC17978 IC90
# How it was run: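 Compounds serially twofold diluted (e.g. 50 to 0.097 μM final) in Iso-Sensitest broth, inoculated at ~5×10^(5) CFU/ml, incubated at 35±2° C. OD600 read every 20 minutes over 16h. IC90 taken as concentration inhibiting 90% of growth during logarithmic phase.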
row,Molecule,IC90 [µM]
1,"CCc1cc(Nc2nccn3c(-c4ccc(OC)c(F)c4F)cnc23)ccc1C(=O)NCCCNC(=O)CC[C@H](NC(=O)[C@@H](N)CCCCN)C(=O)O [Example 403, N2-(L-lysyl)-N5-(3-(4-((3-(2,3-difluoro-4-methoxyphenyl)imidazo[1,2-a]pyrazin-8-yl)amino)-2-ethylbenzamido)propyl)-L-glutamine trihydrochloride]",0.94
2,"CCc1cc(Nc2nccn3c(-c4ccc(OC)c(F)c4F)cnc23)ccc1C(=O)N[C@@H](CN)c1ccccc1 [Example 321, N-[(1R)-2-amino-1-phenylethyl]-4-[[3-(2,3-difluoro-4-methoxyphenyl)imidazo[1,2-a]pyrazin-8-yl]amino]-2-ethylbenzamide; hydrochloride]",4
3,"4-((3-(4- (difluoromethoxy) phenyl)imidazo[1,2- a]pyrazin-8- yl)amino)-N-methyl- 2- (trifluoromethyl) benzamide [Example 53]",0.24
4,"COc1ccc(-c2cnc3c(Nc4ccc(C(=O)NCCN5CCNCC5)c(C)c4)nccn23)c(F)c1F [Example 56, 4-((3-(2,3-difluoro-4-methoxyphenyl)imidazo [1,2-a]pyrazin-8-yl)amino)-2-methyl-N-(2-(piperazin-1-yl)ethyl)benzamide hydrochloride]",0.25
5,"COc1ccc(-c2cnc3c(Nc4ccc(C(=O)N(C)CC5CNC5)c(C)c4)nccn23)cc1F [Example 384, N-(azetidin-3-ylmethyl)-4-[[3-(3-fluoro-4-methoxyphenyl)imidazo[1,2-a]pyrazin-8-yl]amino]-N,2-dimethylbenzamide]",0.88
6,"COc1ccc(-c2cnc3c(Nc4ccc(C(=O)N(C)CC5CCOCC5)c(Cl)c4)nccn23)c(F)c1F [Example 41, 2-chloro-4-[[3-(2,3-difluoro-4-methoxy-phenyl)imidazo[1,2-a]pyrazin-8-yl]amino]-N-methyl-N-(tetrahydropyran-4-ylmethyl)benzamide; 2,2,2-trifluoroacetic acid]",0.62
7,"CCc1cc(Nc2nccn3c(-c4ccc(Oc5ccc(C(=O)NCCN)cn5)c(F)c4F)cnc23)ccc1C(=O)NC [Example 490, N-(2-aminoethyl)-6-[4-[8-[3-ethyl-4-(methylcarbamoyl)anilino]imidazo[1,2-a]pyrazin-3-yl]-2,3-difluoro-phenoxy]pyridine-3-carboxamide; formic acid]",0.45
8,"CCc1cc(Nc2nccn3c(-c4ccc(Cl)cc4F)cnc23)ccc1C(=O)NCCCN [Example 283, N-(3-aminopropyl)-4-[[3-(4-chloro-2-fluorophenyl)imidazo[1,2-a]pyrazin-8-yl]amino]-2-ethylbenzamide; hydrochloride]",2
9,"CCc1cc(Nc2nccn3c(-c4ccc(OC)c(F)c4F)cnc23)ccc1C(=O)NCC(C)CNC(=O)[C@@H](N)CCCNC(=N)N (mixture of isomers) [Example 406, rac-N-(3-((R)-2-amino-5-guanidinopentanamido)-2-methylpropyl)-4-((3-(2,3-difluoro-4-methoxyphenyl)imidazo[1,2-a]pyrazin-8-yl)amino)-2-ethylbenzamide diformate]",0.24

# Same assay, conditions: Acinetobacter baumannii, ATCC17978, 16 h, 90% growth inhibitory concentration; Acinetobacter baumannii ATCC17978; Iso-Sensitest broth, OD 600 nm over 16h; read-out: ATCC17978 IC90
row,Molecule,IC90 [µM]
1,"CNC(=O)c1ccc(Nc2nccn3c(-c4ccc(OC)c(Cl)c4)cnc23)cc1 [Example 181, 4-[[3-(3-chloro-4-methoxyphenyl)imidazo[1,2-a]pyrazin-8-yl]amino]-N-methylbenzamide;2,2,2-trifluoroacetic acid]",1.3
2,"CCc1cc(Nc2nccn3c(-c4ccc(OC)c(F)c4F)cnc23)ccc1C(=O)NCC1CCNCC1 [Example 543, 4-((3-(2,3-difluoro-4-methoxyphenyl)imidazo[1,2-a]pyrazin-8-yl)amino)-2-ethyl-N-(piperidin-4-ylmethyl)benzamide formate]",0.066
3,"CCc1cc(Nc2nccn3c(-c4ccc(OC)c(F)c4F)cnc23)ccc1C(=O)NCCCNC(=O)[C@@H](N)CCNC(=N)N [Example 367, N-[3-[[(2S)-2-amino-4-carbamimidamidobutanoyl]amino]propyl]-4-[[3-(2,3-difluoro-4-methoxyphenyl)imidazo[1,2-a]pyrazin-8-yl]amino]-2-ethylbenzamide;formic acid]",0.1
4,"Cc1cc(Nc2nccn3c(-c4ccc(OC(F)F)cc4)cnc23)ccc1C(=O)N(C)CCN(C)C [Example 50, 4-((3-(4-(difluoromethoxy)phenyl)imidazo[1,2-a]pyrazin-8-yl)amino)-N-(2-(dimethylamino)ethyl)-N,2-dimethylbenzamide]",4.3
5,"COc1ccc(-c2cnc3c(Nc4ccc(C(=O)NCCC5CCNCC5)c(C)c4)nccn23)cc1 [Example 191, 4-[[3-(4-methoxyphenyl)imidazo[1,2-a]pyrazin-8-yl]amino]-2-methyl-N-(2-piperidin-4-ylethyl)benzamide;hydrochlo-ride]",0.33
6,"CCc1cc(Nc2nccn3c(-c4ccc(OC)c(F)c4F)cnc23)ccc1C(=O)NCC(O)CNC(=O)[C@@H](N)CCN (mixture of isomers) [Example 414, rac-N-(3-((R)-2,4-diaminobutanamido)-2-hydroxypropyl)-4-((3-(2,3-difluoro-4-methoxyphenyl)imidazo[1,2-a]pyrazin-8-yl)amino)-2-ethylbenzamide dihydrochloride]",0.39
7,"CNC(=O)c1ccc(Nc2nccn3c(-c4ccc(OC(F)F)cc4)cnc23)cc1CO [Example 225, 4-[[3-[4-(difluoromethoxy)phenyl]im-idazo[1,2-a]pyrazin-8-yl]amino]-2-(hydroxymethyl)-N-methylbenzamide]",1.1
8,"COc1ccc(-c2cnc3c(Nc4ccc(C(=O)N(C)CC(=O)N(C)C)c(C)c4)nccn23)cc1F [Example 7, N-[2-(dimethylamino)-2-oxo-ethyl]-4-[[3-(3-fluoro-4-methoxy-phenyl)imidazo[1,2-a]pyrazin-8-yl]amino]-N,2-dimethyl-benzamide]",1.9
9,"CCc1cc(Nc2nccn3c(-c4ccc(Cl)c(F)c4F)cnc23)ccc1C(=O)NCC1CCNC1 (stereo not shown) [Example 277, 4-[[3-(4-chloro-2,3-difluorophenyl)imidazo[1,2-a]pyrazin-8-yl]amino]-2-ethyl-N-(pyrrolidin-3-ylmethyl)benzamide;hydrochlo-ride]",0.7
10,"COc1ccc(-c2cnc3c(Nc4ccc(C(=O)N[C@H](C)CNC(C)=N)c(C)c4)nccn23)c(F)c1F [Example 486, 4-[[3-(2,3-difluoro-4-methoxyphenyl)imidazo[1,2-a]pyrazin-8-yl]amino]-#N!- [(2#R!)-1-(ethanimidoylamino)propan-2-yl]-2-methylbenzamide;formic acid]",0.068
11,"COc1ccc(-c2cnc3c(Nc4ccc(C(=O)N(C)CCCCC(=O)N5CCNCC5)c(C)c4)nccn23)cc1F [Example 273, 4-[[3-(3-fluoro-4-methoxyphenyl)imidazo[1,2-a]pyrazin-8-yl]amino]-N,2-dimethyl-N-(5-oxo-5-piperazin-1-ylpentyl)benzamide]",0.18
12,"COc1ccc(-c2cnc3c(Nc4ccc(C(=O)N(C)CCc5ncc[nH]5)c(C)c4)nccn23)cc1F [Example 112, 4-[[3-(3-fluoro-4-methoxy-phenyl)imidazo[1,2-a]pyrazin-8-yl]amino]-N-[2-(1H-imidazol-2-yl)ethyl]-N,2-dimethyl-benzamide]",0.96
13,"Cc1cc(Nc2nccn3c(-c4ccc(OC(F)F)cc4)cnc23)ccc1C(=O)NCCCCNC(=N)N [Example 83, 4-((3-(4-(difluoromethoxy)phenyl)imidazo[1,2-a]pyrazin-8-yl)amino)-N-(4-guanidinobutyl)-2-methylbenzamide]",0.25
14,"CCc1cc(Nc2nccn3c(-c4ccc(OC(F)F)c(F)c4F)cnc23)ccc1C(=O)N[C@@H](C)CNC(=O)C1CCNCC1 (racemic) [Example 552, rac-(R)-N-(2-(4-((3-(4-(difluoromethoxy)-2,3-difluorophenyl)imidazo[1,2-a]pyrazin-8-yl)amino)-2-ethylbenzamido)propyl)piper-idine-4-carboxamide formate]",0.21
15,"COc1ccc(-c2cnc3c(Nc4ccc(C(=O)N[C@H](C)CNC(C)=N)c(Cl)c4)nccn23)c(F)c1F [Example 501, 2-chloro-4-[[3-(2,3-difluoro-4-methoxyphenyl)imidazo[1,2-a]pyrazin-8-yl]amino]-#N!- [(2#R!)-1-(ethanimidoylamino)propan-2-yl]benzamide]",0.069
16,"C=Cc1cc(Nc2nccn3c(-c4ccc(OC(F)F)cc4)cnc23)ccc1C(=O)NCCN1CCNCC1 [Example 238, 4-[[3-[4-(difluoromethoxy)phenyl]im-idazo[1,2-a]pyrazin-8-yl]amino]-2-ethenyl-N-(2-piperazin-1-ylethyl)benzamide; hydrochlo-ride]",1.8
17,"CCc1cc(Nc2nccn3c(-c4ccc(OC(F)F)c(F)c4F)cnc23)ccc1C(=O)NC(C)(C)CCN [Example 100, N-(4-amino-2-methylbutan-2-yl)-4-((3-(4-(difluoromethoxy)-2,3-difluorophenyl)imidazo [1,2-a]pyrazin-8-yl)amino)-2-ethylbenzamide hydrochloride]",0.35
18,"CCc1cc(Nc2nccn3c(-c4ccc(OC)c(F)c4F)cnc23)ccc1C(=O)NCC(=O)NCCN1CCC1 [Example 446, N-[2-[2-(azetidin-1-yl)ethylamino]-2-oxo-ethyl]-4-[[3-(2,3-difluoro-4-methoxy-phenyl)imidazo[1,2-a]pyrazin-8-yl]amino]-2-ethyl-benzamide; formic acid]",0.3
19,"CCc1cc(Nc2nccn3c(-c4ccc(OC)c(F)c4F)cnc23)ccc1C(=O)N[C@@H](C)CNC(=O)[C@@H](N)CCCNC(=N)N [Example 342, N-[(2S)-1-[[(2S)-2-amino-5-carbamimidamidopentanoyl]amino]propan-2-yl]-4-[[3-(2,3-difluoro-4-methoxyphenyl)imidazo[1,2-a]pyrazin-8-yl]amino]-2-ethylbenzamide; formic acid]",0.73

# From patent publication US20230012368A1 (Hoffmann-La Roche Inc., priority 2018, published 2023)
